Reference: US7358245B2, “Treatment of gastroesophageal reflux disease” (AstraZenca AB, priority 2001, dated 2008)

Tested on: transient lower esophageal sphincter relaxations (TLESRs)
Assay: Screening for compounds active against TLESR (motility measurement in dogs)
Assay type: in vivo, Adult Labrador retrievers (dog)
Conditions: vs five preceding control experiments for each dog
Description: Adult Labrador retrievers of both genders, trained to stand in a Pavlov sling, are used. Mucosa-to-skin esophagostomies are formed and the dogs are allowed to recover completely before any experiments are done.
In brief, after fasting for approximately 17 h with free supply of water, a multilumen sleeve/sidehole assembly (Dentsleeve, Adelaide, South Australia) is introduced through the esophagostomy to measure gastric, lower esophageal sphincter (LES) and esophageal pressures. The assembly is perfused with water using a low-compliance manometric perfusion pump (Dentsleeve, Adelaide, South Australia). An air-perfused tube is passed in the oral direction to measure swallows, and an antimony electrode monitored pH, 3 cm above the LES. All signals are amplified and acquired on a personal computer at 10 Hz.
When a baseline measurement free from fasting gastric/LES phase III motor activity has been obtained, placebo (0.9% NaCl) or test compound is administered intravenously (i.v., 0.5 ml/kg) in a foreleg vein. Ten min after i.v. administration, a nutrient meal (10% peptone, 5% D-glucose, 5% Intralipid, pH 3.0) is infused into the stomach through the central lumen of the assembly at 100 ml/min to a final volume of 30 ml/kg. Immediately following the meal, air is insufflated at 40 ml/min. The experimental time from start of nutrient infusion to end of air insufflation is 45 min. The procedure has been validated as a reliable means of triggering TLESRs.
TLESRs is defined as a decrease in lower esophageal sphincter pressure (with reference to intragastric pressure) at a rate of >1 mmHg/s. The relaxation should not be preceded by a pharyngeal signal ≦2 s before its onset in which case the relaxation is classified as swallow-induced. The pressure difference between the LES and the stomach should be less than 2 mmHg, and the duration of the complete relaxation longer than 1 s.
The aminoalkylindole cannabinoid WIN 55,212-2, purchased from Tocris Cookson (Bristol, U.K.), was tested on Adult Labrador retrievers of both genders in accordance with the test model described above.
Inhibition of the number of TLESRs was calculated with regard to the five preceding control experiments for each dog, and the results as set out in Table 1 below were achieved.

## Cc1c(C(=O)c2cccc3ccccc23)c2cccc3c2n1[C@H](CN1CCOCC1)CO3 [WIN 55,212-2, (2-methyl-3-morpholin-4-ylmethyl-3,4-dihydro-5-oxa-2a-aza-acenaphthylen-1-yl)-naphthalen-1-yl-methanone]
Dose 0.003 mg/kg i.v.
  % INHIBITION ± SEM (N) of the number of TLESRs: 20 ± 18 (4) %
Dose 0.01 mg/kg i.v.
  % INHIBITION ± SEM (N) of the number of TLESRs: 70 ± 10 (4) %
Dose 0.03 mg/kg i.v.
  % INHIBITION ± SEM (N) of the number of TLESRs: 82 ± 1 (4) %

## COc1ccc2c(c1)c(CCN1CCOCC1)c(C)n2C(=O)c1cccc(Cl)c1Cl [L-768,242, (2,3-dichloro-phenyl)-[5-methoxy-2-methyl-3-(2-morpholin-4-yl-ethyl)-indol-1-yl]-methanone]
Dose 0.3 μmol/kg i.v.
  % INHIBITION ± SEM (N) of the number of TLESRs: 8 ± 21 (4) %
Dose 1 μmol/kg i.v.
  % INHIBITION ± SEM (N) of the number of TLESRs: 44 ± 6 (5) %
Dose 5 μmol/kg i.v.
  % INHIBITION ± SEM (N) of the number of TLESRs: 63 ± 5 (4) %
Dose 7 μmol/kg i.v.
  % INHIBITION ± SEM (N) of the number of TLESRs: 76 ± 12 (3) %

## Cc1c(C(=O)NN2CCCCC2)nn(-c2ccc(Cl)cc2Cl)c1-c1ccc(Cl)cc1 [SR141716A]
Dose 0.22 μmol/kg i.v.
  % STIMULATION ± SEM (N) of the number of TLESRs: 43 ± 16 (6) %
